Measured values reported in ChEMBL document CHEMBL2203044, “Discovery of di-indolinone as a novel scaffold for protein tyrosine phosphatase 1B inhibitors” (Bioorg Med Chem Lett, 2012).

Key:
[1] = target: T1, Tyrosine-protein phosphatase non-receptor type 1 (Homo sapiens, UniProt P18031); assay: Inhibition of recombinant PTP1B using para-nitrophenylphosphate as substrate by high throughput screening assay
T1 sequence (P18031 whole entry): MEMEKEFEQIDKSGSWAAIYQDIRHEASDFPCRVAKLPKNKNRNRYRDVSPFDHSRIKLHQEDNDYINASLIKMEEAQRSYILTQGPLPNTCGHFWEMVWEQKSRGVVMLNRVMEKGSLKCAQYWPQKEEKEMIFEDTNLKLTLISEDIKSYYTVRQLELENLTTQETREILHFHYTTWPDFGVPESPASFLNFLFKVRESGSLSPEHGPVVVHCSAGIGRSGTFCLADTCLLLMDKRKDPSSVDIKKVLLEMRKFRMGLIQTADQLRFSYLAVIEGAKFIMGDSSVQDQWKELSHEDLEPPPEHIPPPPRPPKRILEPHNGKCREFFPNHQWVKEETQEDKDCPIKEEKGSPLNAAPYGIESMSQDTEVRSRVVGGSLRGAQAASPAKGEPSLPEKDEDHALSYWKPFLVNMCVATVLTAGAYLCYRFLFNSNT

[2] = target: Tyrosine-protein phosphatase non-receptor type 6 (Homo sapiens, UniProt P29350); assay: Inhibition of SHP-1
Chain of Tyrosine-protein phosphatase non-receptor type 6 (P29350 whole entry): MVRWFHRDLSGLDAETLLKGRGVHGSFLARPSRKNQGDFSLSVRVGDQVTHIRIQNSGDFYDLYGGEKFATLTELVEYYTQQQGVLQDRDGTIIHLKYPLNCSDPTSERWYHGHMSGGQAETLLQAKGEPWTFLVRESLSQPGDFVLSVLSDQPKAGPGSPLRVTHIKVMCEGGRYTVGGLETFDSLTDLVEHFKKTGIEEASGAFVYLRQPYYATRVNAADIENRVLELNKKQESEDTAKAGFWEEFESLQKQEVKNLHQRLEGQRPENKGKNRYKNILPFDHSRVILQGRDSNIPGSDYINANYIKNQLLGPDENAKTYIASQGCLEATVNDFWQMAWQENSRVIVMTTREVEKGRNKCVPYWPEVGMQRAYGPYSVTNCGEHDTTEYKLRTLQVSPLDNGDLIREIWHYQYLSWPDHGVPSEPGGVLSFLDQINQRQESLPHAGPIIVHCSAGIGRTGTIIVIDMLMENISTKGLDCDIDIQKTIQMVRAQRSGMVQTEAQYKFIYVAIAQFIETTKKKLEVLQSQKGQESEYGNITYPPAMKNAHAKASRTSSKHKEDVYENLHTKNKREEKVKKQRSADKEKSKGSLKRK

[3] = target: Receptor-type tyrosine-protein phosphatase F (Homo sapiens, UniProt P10586); assay: Inhibition of LAR
Chain of Receptor-type tyrosine-protein phosphatase F (P10586 whole entry): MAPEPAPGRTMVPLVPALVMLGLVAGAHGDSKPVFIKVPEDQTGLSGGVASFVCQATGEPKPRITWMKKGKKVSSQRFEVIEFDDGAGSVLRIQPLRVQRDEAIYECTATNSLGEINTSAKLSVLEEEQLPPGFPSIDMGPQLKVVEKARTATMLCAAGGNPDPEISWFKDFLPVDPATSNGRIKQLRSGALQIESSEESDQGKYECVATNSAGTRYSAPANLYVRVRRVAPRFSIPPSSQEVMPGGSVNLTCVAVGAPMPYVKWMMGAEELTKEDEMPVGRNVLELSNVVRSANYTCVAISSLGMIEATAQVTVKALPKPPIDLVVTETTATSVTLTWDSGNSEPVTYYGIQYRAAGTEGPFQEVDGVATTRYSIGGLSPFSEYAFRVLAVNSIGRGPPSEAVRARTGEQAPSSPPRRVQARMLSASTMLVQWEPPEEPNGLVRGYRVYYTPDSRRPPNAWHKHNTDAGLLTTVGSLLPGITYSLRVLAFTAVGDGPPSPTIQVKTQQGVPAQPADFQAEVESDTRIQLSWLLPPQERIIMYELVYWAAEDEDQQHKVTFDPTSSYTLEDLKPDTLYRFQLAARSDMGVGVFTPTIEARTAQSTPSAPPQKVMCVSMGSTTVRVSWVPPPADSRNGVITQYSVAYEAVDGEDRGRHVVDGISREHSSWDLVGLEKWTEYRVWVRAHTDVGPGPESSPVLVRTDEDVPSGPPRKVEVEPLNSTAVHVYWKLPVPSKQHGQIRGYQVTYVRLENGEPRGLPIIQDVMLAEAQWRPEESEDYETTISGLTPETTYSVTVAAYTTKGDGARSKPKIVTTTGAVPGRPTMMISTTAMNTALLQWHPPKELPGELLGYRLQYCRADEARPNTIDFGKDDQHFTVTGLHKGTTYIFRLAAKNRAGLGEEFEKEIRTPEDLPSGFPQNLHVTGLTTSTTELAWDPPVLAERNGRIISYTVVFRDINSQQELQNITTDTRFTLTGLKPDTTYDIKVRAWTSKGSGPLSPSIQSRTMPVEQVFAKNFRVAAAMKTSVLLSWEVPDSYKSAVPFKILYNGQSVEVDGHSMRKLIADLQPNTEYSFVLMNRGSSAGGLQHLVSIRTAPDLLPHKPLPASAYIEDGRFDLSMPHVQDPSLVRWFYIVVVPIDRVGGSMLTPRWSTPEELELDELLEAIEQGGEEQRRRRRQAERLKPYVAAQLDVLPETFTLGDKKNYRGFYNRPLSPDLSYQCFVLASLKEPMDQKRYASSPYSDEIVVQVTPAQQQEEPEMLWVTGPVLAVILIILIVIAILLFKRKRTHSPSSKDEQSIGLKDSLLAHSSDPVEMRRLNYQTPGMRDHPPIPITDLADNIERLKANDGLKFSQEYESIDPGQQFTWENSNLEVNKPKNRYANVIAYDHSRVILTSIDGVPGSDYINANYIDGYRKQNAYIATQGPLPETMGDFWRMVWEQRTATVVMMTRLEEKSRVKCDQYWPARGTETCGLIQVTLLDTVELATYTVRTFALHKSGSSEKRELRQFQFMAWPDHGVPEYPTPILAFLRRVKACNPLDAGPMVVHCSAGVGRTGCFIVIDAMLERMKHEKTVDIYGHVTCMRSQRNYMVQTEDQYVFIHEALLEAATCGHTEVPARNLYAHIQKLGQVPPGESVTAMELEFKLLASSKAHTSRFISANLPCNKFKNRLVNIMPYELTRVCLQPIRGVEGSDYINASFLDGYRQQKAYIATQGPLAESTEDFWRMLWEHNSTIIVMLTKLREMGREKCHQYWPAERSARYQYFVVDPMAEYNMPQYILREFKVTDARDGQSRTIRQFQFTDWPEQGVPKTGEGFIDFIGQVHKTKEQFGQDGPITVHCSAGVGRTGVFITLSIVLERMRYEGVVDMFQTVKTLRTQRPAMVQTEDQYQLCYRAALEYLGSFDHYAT

[4] = target: T2, Tyrosine-protein phosphatase non-receptor type 2 (Homo sapiens, UniProt P17706); assay: Inhibition of TCPTP
T2 sequence (P17706 whole entry): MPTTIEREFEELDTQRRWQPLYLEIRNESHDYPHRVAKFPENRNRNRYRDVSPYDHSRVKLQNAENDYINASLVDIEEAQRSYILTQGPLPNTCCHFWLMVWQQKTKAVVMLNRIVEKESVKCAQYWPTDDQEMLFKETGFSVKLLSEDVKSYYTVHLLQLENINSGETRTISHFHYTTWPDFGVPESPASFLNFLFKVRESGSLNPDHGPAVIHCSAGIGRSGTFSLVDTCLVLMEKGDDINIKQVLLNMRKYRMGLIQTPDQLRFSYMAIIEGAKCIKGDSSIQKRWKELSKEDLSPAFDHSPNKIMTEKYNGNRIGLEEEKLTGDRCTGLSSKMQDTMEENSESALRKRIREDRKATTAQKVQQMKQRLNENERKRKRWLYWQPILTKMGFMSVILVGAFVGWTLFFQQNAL

[5] = target: T3, Tyrosine-protein phosphatase non-receptor type 1 (Homo sapiens) (UniProt P18031); assay: Inhibition of recombinant PTP1B using para-nitrophenylphosphate as substrate at 20 ug/mL by high throughput screening assay
T3 sequence (whole entry): T1 sequence (P18031 whole entry)

Row | Structure (SMILES) | IC50 [1] [µM] | also measured
1 | O=Cc1ccc(CN2C(=O)C(=O)c3ccccc32)o1 | > 60 | –
2 | O=Cc1ccc(CN2C(=O)C(=O)c3cc(Cl)ccc32)o1 | > 60 | –
3 | Cc1ccc2c(c1)C(=O)C(=O)N2Cc1ccc(C=O)o1 | > 60 | –
4 | COC(=O)[C@@H]1CCCCN1Cc1ccc(/C=C2/C(=O)Nc3ccc(F)cc32)o1 | – | inhibition [5]: 14%
5 | Cc1ccc2c(c1)/C(=C\c1ccc(CN3C(=O)C(=O)c4ccccc43)o1)C(=O)N2 | 9.82 | –
6 | O=C1Nc2ccccc2/C1=C\c1ccc(CN2C(=O)C(=O)c3ccccc32)o1 | 7.63 | –
7 | COC(=O)[C@@H]1CCCCN1Cc1ccc(/C=C2/C(=O)N(Cc3ccc(C=O)o3)c3ccc(F)cc32)o1 | – | inhibition [5]: 55%
8 | Cc1ccc2c(c1)C(=O)C(=O)N2Cc1ccc(/C=C2/C(=O)Nc3ccccc32)o1 | 6.71 | –
9 | COC(=O)[C@@H]1CCCCN1Cc1ccc(/C=C2/C(=O)N(Cc3ccc(/C=C4/C(=O)Nc5ccccc54)o3)c3ccc(F)cc32)o1 | – | inhibition [5]: 75%

Continued by falling IC50 [1], values first:

Row | IC50 [1] [µM] | Structure (SMILES) | also measured
10 | 5.7 | Cc1ccc2c(c1)C(=O)C(=O)N2Cc1ccc(/C=C2/C(=O)Nc3ccc(C)cc32)o1 | –
11 | 5.35 | O=C1Nc2ccc([N+](=O)[O-])cc2/C1=C\c1ccc(CN2C(=O)C(=O)c3ccccc32)o1 | –
12 | 5.23 | Cc1ccc2c(c1)C(=O)C(=O)N2Cc1ccc(/C=C2/C(=O)Nc3ccc(Br)cc32)o1 | –
13 | 4.59 | O=C1Nc2ccccc2/C1=C\c1ccc(CN2C(=O)C(=O)c3cc(Cl)ccc32)o1 | –
14 | 4.41 | O=C1Nc2ccc(Cl)cc2/C1=C\c1ccc(CN2C(=O)C(=O)c3ccccc32)o1 | –
15 | 3.46 | Cc1ccc2c(c1)C(=O)C(=O)N2Cc1ccc(/C=C2/C(=O)Nc3ccc(Cl)cc32)o1 | –
16 | 3.37 | Cc1ccc2c(c1)/C(=C\c1ccc(CN3C(=O)C(=O)c4cc(Cl)ccc43)o1)C(=O)N2 | –
17 | 2.8 | O=C1Nc2ccc(Br)cc2/C1=C\c1ccc(CN2C(=O)C(=O)c3ccccc32)o1 | IC50 [2]: > 100 µM; IC50 [3]: > 100 µM; IC50 [4]: 11.5 µM
18 | 2.3 | O=C1Nc2ccc(Cl)cc2/C1=C\c1ccc(CN2C(=O)C(=O)c3cc(Cl)ccc32)o1 | IC50 [2]: > 100 µM; IC50 [3]: > 100 µM; IC50 [4]: 18.8 µM
